From patent publication US7576175B2, “Alpha-4 beta-1 integrin ligands for imaging and therapy” (The Regents of the University of California, priority 2004, dated 2009) come the findings set out here.

Numbered stars: 1 amine (or outer) side, 2 acyl side, 3 side chain; on linkers, the order of the positions; unused ones are H or OH. Square brackets hold non-standard residues; d marks the D form. Peptide text beside a SMILES is read from it. * marks the point of attachment. Acryloyl(3-(3-pyridyl),E) = O=C(/C=C/c1cccnc1)*; dBpa = N[C@H](Cc1ccc(C(=O)c2ccccc2)cc1)C(=O)O; d2Nal = N[C@H](Cc1ccc2ccccc2c1)C(=O)O; Ala(cPr) = N[C@@H](CC1CC1)C(=O)O; Hyp = O=C(O)[C@@H]1C[C@@H](O)CN1; X1 = O=C(Cc1ccc(N[*:1])cc1)[*:2]; d3Pal = N[C@H](Cc1cccnc1)C(=O)O; Aad = N[C@@H](CCCC(=O)O)C(=O)O; Cha = N[C@@H](CC1CCCCC1)C(=O)O; NH(2-Me-phenyl) = Cc1ccccc1N*; Chg = N[C@H](C(=O)O)C1CCCCC1; Nle = CCCC[C@H](N)C(=O)O; Ac5c = NC1(C(=O)O)CCCC1; Ac3c = NC1(C(=O)O)CC1; CO = O=C([*:1])[*:2]

In one experiment the target is T1, α4β1 integrin (Homo sapiens, UniProt P05556+P13612).
T1 construct: screened against live Jurkat cells (α4β1 integrin-positive); endogenous in cells; host or cells: Jurkat T-leukemia cells
T1 sequence (P13612 34-1032): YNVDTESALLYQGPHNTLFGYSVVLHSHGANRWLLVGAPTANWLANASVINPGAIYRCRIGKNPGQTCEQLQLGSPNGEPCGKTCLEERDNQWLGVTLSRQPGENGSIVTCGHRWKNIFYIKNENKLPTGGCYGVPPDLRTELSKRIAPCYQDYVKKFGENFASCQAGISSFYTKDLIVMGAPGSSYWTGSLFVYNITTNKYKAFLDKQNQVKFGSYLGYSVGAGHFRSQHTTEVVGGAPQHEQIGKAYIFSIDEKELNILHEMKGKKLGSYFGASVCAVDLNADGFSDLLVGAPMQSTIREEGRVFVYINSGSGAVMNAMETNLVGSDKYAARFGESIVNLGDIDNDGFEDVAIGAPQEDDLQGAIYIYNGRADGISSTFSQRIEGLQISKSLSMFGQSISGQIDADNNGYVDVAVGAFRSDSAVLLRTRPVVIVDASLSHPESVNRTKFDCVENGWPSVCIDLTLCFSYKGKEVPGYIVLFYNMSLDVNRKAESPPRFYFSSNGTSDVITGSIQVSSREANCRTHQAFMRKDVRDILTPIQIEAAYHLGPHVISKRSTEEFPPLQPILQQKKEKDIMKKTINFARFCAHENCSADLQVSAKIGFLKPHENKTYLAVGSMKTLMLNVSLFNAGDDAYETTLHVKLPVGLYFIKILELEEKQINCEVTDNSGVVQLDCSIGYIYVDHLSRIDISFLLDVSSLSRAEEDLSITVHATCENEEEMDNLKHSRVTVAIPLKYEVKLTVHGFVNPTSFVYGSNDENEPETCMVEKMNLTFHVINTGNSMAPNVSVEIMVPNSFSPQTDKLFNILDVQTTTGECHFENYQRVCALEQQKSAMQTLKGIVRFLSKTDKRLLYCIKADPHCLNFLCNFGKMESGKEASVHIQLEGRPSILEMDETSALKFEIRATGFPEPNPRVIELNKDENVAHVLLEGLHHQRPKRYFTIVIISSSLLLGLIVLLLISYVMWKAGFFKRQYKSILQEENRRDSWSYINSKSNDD
T1 sequence (P05556 21-798): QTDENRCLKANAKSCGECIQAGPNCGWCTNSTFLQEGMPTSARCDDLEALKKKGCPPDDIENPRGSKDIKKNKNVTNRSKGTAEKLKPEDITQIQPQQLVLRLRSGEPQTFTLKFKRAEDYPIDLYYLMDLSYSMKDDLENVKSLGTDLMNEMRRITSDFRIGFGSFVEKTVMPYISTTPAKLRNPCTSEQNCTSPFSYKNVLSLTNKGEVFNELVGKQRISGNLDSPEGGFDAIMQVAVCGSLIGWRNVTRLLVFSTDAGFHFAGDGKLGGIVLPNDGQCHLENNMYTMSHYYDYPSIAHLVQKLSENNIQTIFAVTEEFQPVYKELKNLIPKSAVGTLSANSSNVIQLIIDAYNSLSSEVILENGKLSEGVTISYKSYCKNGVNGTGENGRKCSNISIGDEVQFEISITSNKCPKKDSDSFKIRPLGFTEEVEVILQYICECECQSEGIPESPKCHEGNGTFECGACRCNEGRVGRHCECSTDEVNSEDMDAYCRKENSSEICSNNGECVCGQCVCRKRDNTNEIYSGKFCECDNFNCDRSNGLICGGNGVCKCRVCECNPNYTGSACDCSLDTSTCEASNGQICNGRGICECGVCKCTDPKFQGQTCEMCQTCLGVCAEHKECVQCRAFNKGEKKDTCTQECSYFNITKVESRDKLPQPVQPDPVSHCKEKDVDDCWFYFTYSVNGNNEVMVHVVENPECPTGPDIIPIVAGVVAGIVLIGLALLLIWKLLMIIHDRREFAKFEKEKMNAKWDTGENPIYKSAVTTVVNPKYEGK
As to the kind of experiment: Cell-based α4β1-mediated adhesion assay: inhibition of Jurkat cell adhesion to immobilized CS-1 peptide (IC50).
Details: not given
With `Cc1ccccc1NC(=O)Nc1ccc(CC(=O)N[C@@H](CCCCNC(=O)/C=C/c2cccnc2)C(=O)N[C@@H](CCCC(=O)O)C(=O)NC2(C(=O)N[C@H](CC(=O)O)C(N)=O)CC2)cc1` [3A] ({NH(2-Me-phenyl)-CO}-[X1]K(Acryloyl(3-(3-pyridyl),E))[Aad][Ac3c][dD]-NH2), the IC50 came out at 0.5 nM.

With `Cc1ccccc1NC(=O)Nc1ccc(CC(=O)N[C@@H](CCCCNC(=O)/C=C/c2cccnc2)C(=O)N[C@@H](CCCC(=O)O)C(=O)N[C@H](Cc2ccccc2)C(=O)N[C@H](CC(=O)O)C(N)=O)cc1` [4A] ({NH(2-Me-phenyl)-CO}-[X1]K(Acryloyl(3-(3-pyridyl),E))[Aad][dF][dD]-NH2), half-maximal inhibition (IC50) was put at 0.4 nM.

Regarding `Cc1ccccc1NC(=O)Nc1ccc(CC(=O)N[C@@H](CCCCNC(=O)/C=C/c2cccnc2)C(=O)N[C@@H](CCCC(=O)O)C(=O)N[C@H](Cc2ccccc2)C(=O)N[C@H](Cc2cccnc2)C(N)=O)cc1` [7A] ({NH(2-Me-phenyl)-CO}-[X1]K(Acryloyl(3-(3-pyridyl),E))[Aad][dF][d3Pal]-NH2), the IC50 turned out to be 4 nM.

`CCCC[C@H](NC(=O)Cc1ccc(NC(=O)Nc2ccccc2C)cc1)C(=O)N[C@@H](CCCC(=O)O)C(=O)N[C@@H](CC1CCCCC1)C(=O)N[C@H](CCC(=O)O)C(N)=O` [8A] ({NH(2-Me-phenyl)-CO}-[X1][Nle][Aad][Cha][dE]-NH2): the IC50 was 0.75 nM.

In turn, `CCCC[C@H](NC(=O)Cc1ccc(NC(=O)Nc2ccccc2C)cc1)C(=O)N[C@@H](CCCC(=O)O)C(=O)N[C@H](C(=O)N1C[C@H](O)C[C@H]1C(=O)N[C@@H](CCCC(=O)O)C(N)=O)C1CCCCC1` [9A] ({NH(2-Me-phenyl)-CO}-[X1][Nle][Aad][Chg][Hyp][Aad]-NH2) gave an IC50 of 1.45 nM.

On to `Cc1ccccc1NC(=O)Nc1ccc(CC(=O)N[C@@H](CC2CC2)C(=O)N[C@@H](CCCC(=O)O)C(=O)N[C@H](C(=O)NC2(C(=O)N[C@H](CC(=O)O)C(=O)N[C@H](CCC(=O)O)C(N)=O)CCCC2)C2CCCCC2)cc1` [10A] ({NH(2-Me-phenyl)-CO}-[X1][Ala(cPr)][Aad][Chg][Ac5c][dD][dE]-NH2), for which it took 0.53 nM to reach half-maximal inhibition (IC50).

The compound `Cc1ccccc1NC(=O)Nc1ccc(CC(=O)N[C@@H](CCCCNC(=O)/C=C/c2cccnc2)C(=O)N[C@@H](CCCC(=O)O)C(=O)N[C@H](Cc2ccc3ccccc3c2)C(=O)N[C@@H](C(=O)N[C@H](Cc2ccc(C(=O)c3ccccc3)cc2)C(N)=O)[C@H](C)O)cc1` [11A] ({NH(2-Me-phenyl)-CO}-[X1]K(Acryloyl(3-(3-pyridyl),E))[Aad][d2Nal][dT][dBpa]-NH2) yielded an IC50 of 77.5 nM.

As for `Cc1ccccc1NC(=O)Nc1ccc(CC(=O)N[C@@H](CCCCNC(=O)/C=C/c2cccnc2)C(=O)N[C@@H](CCCC(=O)O)C(=O)N[C@@H](Cc2ccccc2)C(N)=O)cc1` [14A], half-maximal inhibition (IC50) required 0.2 nM.

The same experiment, now with this note: Jurkat cell adhesion to CS-1 peptide; re-synthesized ligands of Tables 18 and 19; read-out: IC50.
Take `Cc1ccccc1NC(=O)Nc1ccc(CC(=O)N[C@@H](CCCCNC(=O)/C=C/c2cccnc2)C(=O)N[C@@H](CCCC(=O)O)C(=O)N[C@H](Cc2ccccc2)C(N)=O)cc1` [1A]: the IC50 is 0.022 nM.

Consider `Cc1ccccc1NC(=O)Nc1ccc(C(C)C(=O)N[C@@H](CCCCNC(=O)/C=C/c2cccnc2)C(=O)N[C@@H](CCCC(=O)O)C(=O)N[C@H](Cc2ccccc2)C(N)=O)cc1` (stereo partly drawn) [1B], for which the IC50 was found to be 8.9 nM.

`Cc1ccccc1NC(=O)Nc1ccc(C(C)C(=O)N[C@@H](CCCCNC(=O)/C=C/c2cccnc2)C(=O)N[C@@H](CCCC(=O)O)C(=O)NC2(C(N)=O)CCCCC2)cc1` (stereo partly drawn) [2B]: the IC50 came to 9.5 nM.

With `Cc1ccccc1NC(=O)Nc1ccc(CC(=O)N[C@@H](CCCCNC(=O)/C=C/c2cccnc2)C(=O)N[C@@H](CCCC(=O)O)C(=O)N[C@H](Cc2ccccc2)C(=O)O)cc1` [12A], the IC50 was 0.4 nM.

As to `Cc1ccccc1NC(=O)Nc1ccc(CC(=O)N[C@@H](CCCCNC(=O)/C=C/c2cccnc2)C(=O)N[C@@H](CCCC(=O)O)C(=O)N[C@H](C(N)=O)C(C)C)cc1` [15A], the IC50 was 0.2 nM.

In the case of `Cc1ccccc1NC(=O)Nc1ccc(CC(=O)N[C@@H](CCCCNC(=O)/C=C/c2cccnc2)C(=O)N[C@@H](CCCC(=O)O)C(=O)N[C@@H](C(N)=O)C(C)C)cc1` [16A], the IC50 is 0.2 nM.

The target of the next experiment is T1, α4β1 integrin. As to the kind of experiment: Bead-binding inhibition assay: soluble ligand inhibits binding of Jurkat cells to BIO-1211-containing beads. It is filed as cell-based. The conditions noted are these: overnight incubation, FIG. 7. An excerpt: To this end, the bead library was screened using Jurkat cells in the presence of BIO-1211.
This library was screened using a competitive cell-based screening method with high stringency so that only those ligands with very high affinity to α4β1 integrin are coated by a layer of lymphoma cells (FIG. 2). To achieve this, an increasing amount of known α4β1 antagonist was incorporated into the screening solution, which competed with the interaction between cell surface α4β1 integrin and the immobilized library compounds on the bead surface, until a limited number of positive beads were detected in the library. […] Twenty beads were isolated under these high stringency conditions. Guanidine HCl (8 M) was used to strip the beads of all cells and proteins. The recovered beads were then retested with normal peripheral blood lymphocytes. Beads that bound preferentially to Jurkat cells but not to normal lymphocytes were sequenced. A total of twelve true positive beads were isolated and decoded, which represented 6 independent ligands. All of the identified ligands have the following structure:
The bead-binding inhibition assay was performed using the soluble ligand to inhibit the binding of Jurkat cells to the BIO-1211-containing beads.
Regarding `Cc1ccccc1NC(=O)Nc1ccc(CC(=O)N[C@@H](CCCCNC(=O)/C=C/c2cccnc2)C(=O)N[C@@H](CCCC(=O)O)C(=O)N[C@H](Cc2ccccc2)C(=O)N[C@H](CC(=O)O)C(N)=O)cc1` [4A] ({NH(2-Me-phenyl)-CO}-[X1]K(Acryloyl(3-(3-pyridyl),E))[Aad][dF][dD]-NH2), the “concentration inhibiting binding of Jurkat cells to BIO-1211-containing beads, compared with BIO-1211” value is given as “significantly lower concentration than BIO-1211”.

The same experiment, now with this note: soluble ligand vs BIO-1211-containing beads, Jurkat cells.
For the compound `Cc1ccccc1NC(=O)Nc1ccc(CC(=O)N[C@@H](CCCCNC(=O)/C=C/c2cccnc2)C(=O)N[C@@H](CCCC(=O)O)C(=O)NC2(C(N)=O)CCCCC2)cc1` [2A], the “binding affinity for α4β1 integrin in the bead-binding inhibition assay” value is “highest binding affinities”.

For `Cc1ccccc1NC(=O)Nc1ccc(CC(=O)N[C@@H](CCCCNC(=O)/C=C/c2cccnc2)C(=O)N[C@@H](CCCC(=O)O)C(=O)NC2(C(=O)N[C@H](CC(=O)O)C(N)=O)CC2)cc1` [3A] ({NH(2-Me-phenyl)-CO}-[X1]K(Acryloyl(3-(3-pyridyl),E))[Aad][Ac3c][dD]-NH2), the “binding affinity for α4β1 integrin in the bead-binding inhibition assay” value is listed as “highest binding affinities”.

Consider `Cc1ccccc1NC(=O)Nc1ccc(CC(=O)N[C@@H](CCCCNC(=O)/C=C/c2cccnc2)C(=O)N[C@@H](CCCC(=O)O)C(=O)N[C@H](Cc2ccccc2)C(=O)N[C@H](CC(=O)O)C(N)=O)cc1` [4A] ({NH(2-Me-phenyl)-CO}-[X1]K(Acryloyl(3-(3-pyridyl),E))[Aad][dF][dD]-NH2), for which the “binding affinity for α4β1 integrin in the bead-binding inhibition assay” value is “highest binding affinities”.
